By pEC50 is commonly meant the negative decadic logarithm of the EC50, by convention in mol/L.

pEC50: −log10 of the molar value. Where a name gives a salt, the structure may show the parent alone.

Assay [1] deals with T1, human S1P3 receptor (Homo sapiens, UniProt Q99500).
T1 construct: expressed in transfected cells; membranes
The experiment in a line: S1P3 GTPγS Assay. The settings on record: S1P3 RBL-2H3 membranes, agonist. The class given is biochemical. The procedure: (§1) For membrane preparations all steps were performed at 4° C. Rat hepatoma cells stably expressing the human S1P1 receptor or Rat Basophilic Leukaemia cells (RBL) stably expressing human S1P3 receptor were grown to 80% confluency before being harvested into 10 ml Phospho-Buffered Saline (PBS) and centrifuged at 1200 rpm for 5 minutes. After removal of the supernatant, the pellet was re-suspended and cells were homogenised within a glass Waring blender for 2 bursts of 15 secs in 200 mls of buffer (50 mM HEPES, 1 mM leupeptin, 25 μg/ml bacitracin, 1 mM EDTA, 1 mM PMSF, 2 μM pepstatin A). The blender was plunged into ice for 5 mins after the first burst and 10-40 mins after the final burst to allow foam to dissipate. The material was then spun at 500 g for 20 mins and the supernatant spun for 36 mins at 48,000 g. The pellet was resuspended in the same buffer as above but without PMSF and pepstatin A. The material was then forced through a 0.6 mm needle, made up to the required volume, (usually ×4 the volume of the original cell pellet), aliquoted and stored frozen at −80° C.
S1P3 membranes from rat basophilic leukaemia cells (RBL-2H3) (1.5 μg/well) were adhered to WGA-coated SPA beads (0.125 mg/well) in assay buffer (HEPES 20 mM, MgCl2 3 mM, NaCl 100 mM and pH adjusted to 7.4 using KOH 5M), GDP 10 μM FAC and saponin 90 μg/ml FAC was also added).
After 30 minutes pre-coupling on ice the bead and membrane suspension was dispensed into a white Greiner polypropylene LV384-well plate (5 μl/well), containing 0.1 μl of the compound. 5 μl/well [^35S]-GTPγS (0.5 nM final radioligand conc) made up in assay buffer was then added to agonist plates. The final assay cocktail (10.1 μl) was centrifuged at 1000 rpm for 5 minutes then read immediately on a Viewlux reader. […]
(§2) After 30 minutes precoupling on ice, the bead and membrane suspension was dispensed into white Greiner polypropylene LV 384-well plates (5 μl/well), containing 0.1 μl of compound. […] The final assay cocktail (10.1 μl) was then sealed, spun on a centrifuge, then read immediately on a Viewlux instrument.

In assay [2] the target is T2, human S1P1 receptor (Homo sapiens, UniProt P21453).
T2 construct: expressed in transfected cells; membranes
Briefly: S1P1 GTPγS Assay. The class given is biochemical. The settings on record: human S1P1 rat hepatoma membranes, agonist. As for the experimental part:
Membrane Preparation for S1P1 GTPγS Assay
as §1, with “The material was then spun at 500 g for 20 mins and the supernatant spun for 36 mins at 48,000 g. The pellet was resuspended in the same buffer as above but without PMSF and pepstatin A. The material was then forced through a 0.6 mm needle, made up to the required volume, (usually ×4 the volume of the original cell pellet), aliquoted and stored frozen at −80° C.” left out
After 30 minutes pre-coupling on ice the bead and membrane suspension was dispensed into a white Greiner polypropylene LV384-well plate (5 μl/well), containing 0.1 μl of the compound. […] The final assay cocktail (10.1 μl) was then centrifuged at 1000 rpm for 5 minutes then read immediately on a Viewlux reader. […]
as §2

T1 sequence (Q99500 whole entry): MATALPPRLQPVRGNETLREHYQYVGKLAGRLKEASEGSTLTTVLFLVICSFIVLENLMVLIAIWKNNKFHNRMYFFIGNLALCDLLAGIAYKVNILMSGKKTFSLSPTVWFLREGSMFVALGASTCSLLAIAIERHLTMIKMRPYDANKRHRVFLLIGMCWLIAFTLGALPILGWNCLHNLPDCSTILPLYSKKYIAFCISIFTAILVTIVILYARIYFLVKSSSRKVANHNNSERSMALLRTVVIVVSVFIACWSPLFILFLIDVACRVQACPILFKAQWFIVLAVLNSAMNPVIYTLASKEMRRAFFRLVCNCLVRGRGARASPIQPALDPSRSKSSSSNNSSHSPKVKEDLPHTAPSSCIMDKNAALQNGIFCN
T2 sequence (P21453 whole entry): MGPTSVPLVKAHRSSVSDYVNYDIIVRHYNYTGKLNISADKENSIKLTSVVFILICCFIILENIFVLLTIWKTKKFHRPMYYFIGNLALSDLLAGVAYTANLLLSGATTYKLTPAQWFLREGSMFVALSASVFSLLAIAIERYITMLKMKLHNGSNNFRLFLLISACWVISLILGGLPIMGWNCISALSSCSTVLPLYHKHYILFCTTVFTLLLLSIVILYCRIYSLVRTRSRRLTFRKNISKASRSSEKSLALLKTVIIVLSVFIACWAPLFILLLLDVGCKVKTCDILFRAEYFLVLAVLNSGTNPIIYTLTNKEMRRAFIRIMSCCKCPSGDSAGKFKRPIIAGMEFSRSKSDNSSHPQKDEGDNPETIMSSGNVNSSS

Consider `CC(C)Oc1ccc(-c2nc(-c3cccc4c3CNC4)no2)cc1C#N` [Example 1, 5-[3-(2,3-Dihydro-1H-isoindol-4-yl)-1,2,4-oxadiazol-5-yl]-2-[(1-methylethyl)oxy]benzonitrile hydrochloride], for which the pEC50 was under 5.00 in assay [1] and over 8.00 in assay [2].
Turning to `CC(C)Oc1ccc(-c2nc(-c3cccc4c3CNC4)no2)cc1Cl` [Example 2, 4-(5-{3-Chloro-4-[(1-methylethyl)oxy]phenyl}-1,2,4-oxadiazol-3-yl)-2,3-dihydro-1H-isoindole], the pEC50 was under 5.00 in assay [1] and over 8.00 in assay [2].
Regarding `CC(C)Oc1ccc(-c2nc(-c3cccc4c3CN(CCCC(=O)O)C4)no2)cc1C#N` [Example 5, 4-[4-(5-{3-cyano-4-[(1-methylethyl)oxy]phenyl}-1,2,4-oxadiazol-3-yl)-1,3-dihydro-2H-isoindol-2-yl]butanoic acid], in assay [1], the pEC50 is under 5.00.
